Patent US7101681B1, “Nuclear hormone receptor drug screens” (Amgen, Inc., priority 1997, dated 2006)

Key:
RXR = assay: Fluorescent polarization assay, labeled peptide sensor binding to RXR; settings: for Sensors Activity: Fluorescent Polarization Assay RXR: graded symbols O, I to IV, key not given
Protocol: (§1) I. High-Throughput In Vitro Fluorescence Polarization Assay
(§2) • Sensor: Rhodamine-labeled L1X1X2L2L3 peptide (final conc.=1–5 nM) • Receptor: Glutathione-S-transferase/nuclear hormone receptor ligand binding domain fusion protein (final conc.=100–200 nM) • Buffer: 10 mM HEPES, 10 mM NaCl, 6 mM magnesium chloride, pH 7.6 Protocol: • 1. Add 90 microliters of peptide/NHR mixture to each well of a 96-well microtiter plate. • 2. Add 10 microliters of test compound per well. • 3. Shake 5 min and within 5 minutes determine amount of fluorescence polarization by using a Fluorolite FPM-2 Fluorescence Polarization Microtiter System (Dynatech Laboratories, Inc). II. Conformational Sensor—ELISA Format Assay Buffer and Solution Preparation: […]

LXR = assay: Fluorescent polarization assay, labeled peptide sensor binding to LXR; settings: for Sensors Activity: Fluorescent Polarization Assay LXR: graded symbols O, I to IV, key not given
Protocol: as §1, §2

PPARγ = biological target: T1, PPARγ (Homo sapiens, UniProt P37231); assay: Fluorescent polarization assay, labeled peptide sensor binding to PPARγ; settings: graded symbols O, I to IV, key not given
T1 sequence (P37231 238-503 limits assumed): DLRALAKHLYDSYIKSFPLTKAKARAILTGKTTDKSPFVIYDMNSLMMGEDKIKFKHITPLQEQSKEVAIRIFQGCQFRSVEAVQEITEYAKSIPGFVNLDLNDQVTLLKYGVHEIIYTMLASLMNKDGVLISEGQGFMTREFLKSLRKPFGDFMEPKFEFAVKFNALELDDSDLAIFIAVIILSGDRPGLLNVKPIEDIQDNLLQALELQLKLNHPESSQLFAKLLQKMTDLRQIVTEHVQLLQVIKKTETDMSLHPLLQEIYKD
Protocol: as §1, §2

Row | Compound | Sensors Activity: Fluorescent Polarization Assay LXR (LXR) | Sensors Activity: Fluorescent Polarization Assay RXR (RXR) | also measured
1 | 9-cis-retinoic acid [reference compound] | – | – | RXR receptor affinity for labeled peptide sensor (RXR; ligand at 1 μM, dose response, FIG. 3): increases
2 | TUK-1393: labeled peptide sensor R-G-LLRYLLDK, SRC-1 748–755 | III+ | II+ | –
3 | TUK-1392: labeled peptide sensor F-G-LLRYLLDK, SRC-1 748–755 | II+ | – | –
4 | TUK-1380: labeled peptide sensor F-LLQQLLTE (SEQ ID NO:12), SRC-1 1434–1441 (fluorescent label) | II+ | – | –
5 | TUK-1473: labeled peptide sensor R-QLLRYLLDKD (SEQ ID NO:9), SRC-1 747–756 (label R) | – | I+ | Sensors Activity: Fluorescent Polarization Assay PPARγ (PPARγ): I+
6 | TUK-1391: labeled peptide sensor R-LLRYLLDK, SRC-1 748–755 | – | – | Sensors Activity: Fluorescent Polarization Assay PPARγ (PPARγ): II+
7 | TUK-1376: labeled peptide sensor F-G-VTLLQLLLG, RIP-140 496–506 | II+ | – | –
8 | TUK-1453: labeled peptide sensor R-LLRYLLD (SEQ ID NO:4), SRC-1 748–754 (R label) | – | I+ | –
9 | TUK-1557: labeled peptide sensor R-ILKKLLQE (SEQ ID NO:17), synthetic sequence peptide (label R) | III+ | – | –
10 | TUK-1381: labeled peptide sensor R-LLQQLLTE, SRC-1 1434–1441 | – | I+ | Sensors Activity: Fluorescent Polarization Assay PPARγ (PPARγ): I+
11 | TUK-1390: labeled peptide sensor F-LLRYLLDK (SEQ ID NO:3), SRC-1 748–755 (fluorescent label) | – | II+ | –
12 | TUK-1385: labeled peptide sensor R-KLVQLLTTT, SRC-1 632–640 | II+ | II+ | –
13 | TUK-1382: labeled peptide sensor F-G-LLQQLLTE, SRC-1 1434–1441 | II+ | – | –
14 | TUK-1455: labeled peptide sensor R-LRYLLD (SEQ ID NO:5), SRC-1 749–754 (R label) | – | – | Sensors Activity: Fluorescent Polarization Assay PPARγ (PPARγ): I+
15 | CC(C)C(=O)CC[C@@H](C)[C@H]1CC[C@H]2[C@@H]3CC=C4C[C@@H](O)CC[C@]4(C)[C@H]3CC[C@]12C [24-ketocholesterol, reference compound] | – | – | LXR receptor affinity for labeled peptide sensor (LXR; ligand at 2 μM, dose response, FIG. 2): increases
16 | TUK-1371: labeled peptide sensor R-ILHRLLQE, SRC-1 689–696 | – | – | Sensors Activity: Fluorescent Polarization Assay PPARγ (PPARγ): I+
17 | TUK-1373: labeled peptide sensor R-G-ILHRLLQE, SRC-1 689–696 | – | II+ | –
